Assay results taken from patent US7326562B2, “Biological indicator system to detect effectiveness of sterilization” (priority 1999, dated 2008).

Legend:
B. subtilis spores [1] = assay: Ethylene oxide sterilization of biological indicator; viability by MALS, AODC and TSA plating; format: cell-based, Bacillus subtilis
Protocol: The ethylene oxide sterilizer used herein was operated at the Department of Veterans Affairs, Processing & Distribution Section, VAHMCS Baltimore Division (Baltimore, Md.). The sterilizing cycle was fixed to include a 2.5 hour exposure to ethylene oxide followed by a de-gassing cycle of 14.5 hours. A non-biological indicator was used to also monitor the sterilization. A surgicot 2 (Surgicot, Research Triangle Park, N.C.) laminated EO Gas Indicator (Propper Manufacturing Co., Long Island, N.Y.) which registers a change in color after correct processing has been accomplished was used for this purpose.
After completion of the EO sterilization cycle, the BI culture was diluted and the spores were suspended in 5% BHI, as described above. […] Following heat-shock, the sample was incubated at 37° C. for 24 hours to ensure that viable cells could be detected if present. […] Direct plating on TSA was also performed to further determine the presence of viable cells.

B. subtilis spores [2] = system: B. subtilis spores
Protocol: The sterilization cycle requires about 70 minutes to complete. […] The STERRAD* employed a non-biological indicator comprising a Chemical Indicator strip supplied by the manufacturer which changed from red to yellow (or lighter) as compared to the color bar on the strip when exposed to H2O2 during the processing cycle. Also, a BI (B. subtilis spore strips) was incubated in a nutrient broth for 7 days to determine successful sterilization.
For all H2O2 sterilized cultures, the BI challenge was one ml of B. subtilis spores at a concentration of 1.7×10^8/ml which were air-dried onto a glass slide as described previously elsewhere herein. After completion of the STERRAD Cycle of approximately 70 minutes, the BI culture was diluted and the cells were suspended in 5% BHI, as described above. The culture was diluted to the same concentration as the control BI and the sample was heat-shocked at 70° C. for 10 minutes and incubated at 37° C. for 24 hours to detect any viable cells present. MALS measurements were obtained at 0 minutes, 30 minutes, 1 hour, 2 hours, 3 hours, 4 hours, and 4.75 hours, and parallel samples were obtained for analysis by AODC direct counting. Direct plating on TSA was also performed to determine the presence of viable cells. […]

[3] = system: B. subtilis (Difco) spores; assay: Acridine orange direct counts (AODC) of spores directly after ozone treatment; format: cell-based, Bacillus subtilis; settings: 0.3 ppm ozone
Protocol: One ml samples of the culture to be counted were placed into small conical vials and the cell culture was fixed by adding 30 μl of a 36.5-38.0% formalin solution. After fixing the culture with formalin for at least about 30 minutes, the sample was either refrigerated or the AO staining procedure was carried to completion. To stain, 100 μl of a 0.1% acridine orange solution were added to the 1.0 ml spore sample and the dye was allowed to react with the spores for approximately five to eight minutes. Polycarbonate membranes (Poretics®, Osmonics, Livermore Calif.) 25 mm in diameter, 0.2 μm porosity, and black in color were soaked in sterile, distilled water for about 5 to 10 minutes. The membranes were then placed on a millipore filter apparatus. One ml aliquots from control or treated samples which had been stained with AO were placed onto the filters and vacuum was applied. The samples were filtered until the fluid was removed. Then, the filter apparatus container from which the fluid had been removed was rinsed with distilled water to ensure that all cells or spores were impinged upon the filter surface. The filter was laid upon a clean microscope slide, a drop of mineral oil applied to the surface of the membrane, and a clean coverslip was laid onto the membrane.
The AODC slide was examined under a microscope using ultraviolet optics (Olympus VANOX-T equipped for light, phase-contrast, and UV-fluorescence microscopy) which microscope was also fitted with photographic and TV Monitoring equipment. A scaled grid in the eyepiece of the microscope permitted the direct counting of the bacterial spores, bacilli, or other bodies that are stained by the dye and which fluoresce under the UV optics. To determine the number of cells/spores in a sample, the number counted in the entire grid was multiplied by 3.3×10^4 and by any dilution factor of the sample.
(§1) By the use of toggle switches, the ozone was directed through glass spargers into either of two specifically designated 2-liter Erlenmeyer flasks containing one liter of distilled water. Either a solution of a test chemical or a suspension of microorganisms, or both, was introduced into the flasks via tubes at the top, which passed into the flasks through rubber stoppers that sealed off the system. Samples could be withdrawn at the bottom of the flasks by opening a stopcock. The ozone concentrations were measured using chemical oxidation of indigo dye using an Ozone Pocket Colorimeter™ per manufacturer's instructions (HACH, Inc., Loveland, Colo.). Bacillus spores, at a concentration of 2×10^6 spores/milliliter were exposed to ozone for treatment times of 0, 5, 10, 15, 20, and 30 minutes, after which times they were measured by MALS, AODC, and CFU, respectively.
(§2) Table 2 gives a direct comparison of MALS, AODC, and CFU data for ozone treatment of B. subtilis spores over at 5-minute intervals over a 30-min period. All MALS and AODC measurements were made on spores immediately after treatment, and in the absence of incubation. Spores were plated immediately onto Trypticase Soy Agar after treatment to verify the number of surviving spores (CFU).
(§3) Ozone treatment of microbes is representative of cold sterilization and disinfection.

B. subtilis = settings: 8% humidified ozone sterilization; cited from earlier work
B. stearothermophilus = settings: 8% humidified ozone sterilization; cited from earlier work
[4] = system: B. subtilis (Difco) spores; assay: MALS (DAWN-F) measurement of spores directly after ozone treatment; format: cell-based, Bacillus subtilis; settings: 0.3 ppm ozone; for MALS Intensity: no incubation
Source text: The MALS instrument used was the DAWN Model F (Wyatt Technology Corp., Santa Barbara, Calif.), which is a flow-through instrument permitting the liquid from a sample to pass through a flow cell while continuously making measurements on the particles as they pass through the cell. Otherwise, the instrument is virtually identical to the DAWN Model B previously described elsewhere herein.
(§4) Ozone model CD-1B (Aqua-Flo, Inc., Baltimore, Md.), equipped with voltage regulator and oxygen flow controls was used to generate an ozone doses of 0.3 to 0.35 ppm in water. Ozone was generated from oxygen, supplied from an oxygen tank with O2 purity of more than about 99.9%. The generator was fitted with a voltage regulator and an oxygen flow regulator which enabled the precise setting of oxygen flow and voltage parameters such that the desired concentration of O3 could be maintained continuously. An oxygen flow rate of 8 ft^3/hr, at 5 psi, and approximately 70 to 80 amps was used to generate the concentrations specified. Excess (head) ozone was passed through a platinum catalyst that converted it back to oxygen where it was released into a vented chemical safety hood.
as §1
(§5) Ozone treatment of microbes is representative of cold sterilization and disinfection. […] Bacillus subtilis spores, at an concentration of 2×10^6 spores/milliliter were exposed to ozone at treatment times of 0, 5, 10, 15, 20, and 30 minutes, at which times they were measured by MALS, AODC, and CFU, respectively. All measurements were made on spores immediately and without the need for incubation. […] These measurements could be correlated directly with the cumulative concentration of ozone with increasing time of exposure. […] For a kill of […] (reduction from 2.1×10^6 to 1.8×10^3 spores/ml) the CT is 0.3 ppm×15 min=4.5. For a kill of 99.995% (reduction from 2.1×10^6 to 10 spores/mL), it is 0.3 ppm×30 min=9.
as §2, §3

[5] = molecular target: B. subtilis (Difco) spores; assay: Viable plate counts (CFU) on trypticase soy agar after ozone treatment; format: cell-based, Bacillus subtilis; settings: for kill of the spore population / viable spores after treatment / CFU % of AODC / CFU % of Control / CFU/ml: 0.3 ppm ozone; for viable spores after treatment: reduction from 2.1×10^6; for CFU/ml: CFU after 24 hours incubation
Protocol: Dried spores from the sample vials or glass slides were eluted into sterile distilled water, plated directly, serially diluted (up to 10^−6), and plated onto TSA. After 18 to 24 hours of incubation at 37° C. for B. subtilis and 55° C. for B. stearothermophilus), the viable colony forming units (CFU) were counted. Plates that had no colonies were incubated for several more days (up to 7 days) to ensure that there were no damaged, but viable spores. From each of the same samples, Trypticase Soy broth was inoculated and incubated for up to seven days to ensure that there were no surviving bacteria in the negative assays.
The spores were eluted from the biological indicator slides or scintillation vials into 20 ml of sterile distilled water and 0.1 ml of the sample was spread onto TSA plates.
as §1, §5, §2, §3

[6] = system: B. stearothermophilus spores; assay: Ozone treatment of B. stearothermophilus spores, MALS directly after treatment; format: cell-based, Bacillus stearothermophilus; settings: about 0.3 ppm ozone, 5 to 20 min, 0 hours post-treatment
Source text: as §4
By the use of toggle switches, the ozone was directed through glass spargers into either of two specifically designated 2-liter Erlenmeyer flasks containing one liter of distilled water. […] The ozone concentrations were measured using chemical oxidation of indigo dye using an Ozone Pocket Colorimeter™ per manufacturer's instructions (HACH, Inc., Loveland, Colo.). Bacillus spores, at a concentration of 2×10^6 spores/milliliter were exposed to ozone for treatment times of 0, 5, 10, 15, 20, and 30 minutes, after which times they were measured by MALS, AODC, and CFU, respectively. […]

Q: What does the source list for `C1CO1` [EO, ethylene oxide]?
A: bacterial growth of BI immersed in water (B. subtilis spores [1]; EO samples immersed within 10, 50, and 100 ml of water): all positive for bacterial growth; viable colonies on TSA plates (B. subtilis spores [1]; spores dried on glass slide, 2.5 hour EO exposure, heat-shocked, incubated in 5% BHI): no viable colonies; AODC direct counts during incubation (B. subtilis spores [1]; spores dried on glass slide, EO cycle, 0 to 4 hours incubation): no increase in direct counts

Q: Which “MALS N/No value” (B. subtilis spores [2]; H2O2-sterilized BI after 3 hours of incubation vs control at 0 minutes) does the source give for `OO` [H2O2, hydrogen peroxide] here?
A: Its value is 1.0.

Q: What about the “growth on TSA plates” value (B. subtilis spores [2]; STERRAD* cycle about 70 minutes, 10 plates on each of triplicate samples) of the same molecule?
A: Its value is “no growth on any plate”.

Q: What does the source list for `O=[O+][O-]` [ozone]?
A: AODC % of control ([3]; 5 min treatment): 68.3%; AODC Spores per ml ([3]; 5 min treatment): 1.6 × 10^6 spores per ml; AODC % of control ([3]; 10 min treatment): 49.5%; AODC Spores per ml ([3]; 10 min treatment): 1.16 × 10^6 spores per ml; AODC % of control ([3]; 15 min treatment): 55.1%; AODC Spores per ml ([3]; 15 min treatment): 1.29 × 10^6 spores per ml; AODC % of control ([3]; 20 min treatment): 20.8%; AODC Spores per ml ([3]; 20 min treatment): 4.87 × 10^5 spores per ml; AODC % of control ([3]; 30 min treatment): 21.5%; AODC Spores per ml ([3]; 30 min treatment): 5.03 × 10^5 spores per ml; D value (time required to reduce the number of spores by 1 log) (B. subtilis): 5 minutes; D value (time required to reduce the number of spores by 1 log) (B. stearothermophilus): 4.3 minutes; MALS % of control ([4]; 5 min treatment): 65.33%; MALS Intensity ([4]; 5 min treatment, log weighted average of intensities at all detectors): 1591.92; MALS % of control ([4]; 10 min treatment): 51.89%; MALS Intensity ([4]; 10 min treatment): 1264.26; MALS % of control ([4]; 15 min treatment): 42.67%; MALS Intensity ([4]; 15 min treatment): 1039.64; MALS % of control ([4]; 20 min treatment): 34.94%; MALS Intensity ([4]; 20 min treatment): 851.5; MALS % of control ([4]; 30 min treatment): 27.96%; MALS Intensity ([4]; 30 min treatment): 681.2; kill of the spore population ([5]; 5 min): 41.4%; viable spores after treatment ([5]; 5 min): 1.23×10^6 spores/ml; CFU % of AODC ([5]; 5 min treatment): 76.9%; CFU % of Control ([5]; 5 min treatment): 58.5%; CFU/ml ([5]; 5 min treatment): 1.23 × 10^6 CFU/ml; CFU % of AODC ([5]; 10 min treatment): 14.5%; CFU % of Control ([5]; 10 min treatment): 8.0%; CFU/ml ([5]; 10 min treatment): 1.68 × 10^5 CFU/ml; kill of the spore population ([5]; 15 min): 91%; viable spores after treatment ([5]; 15 min): 1.8×10^3 spores/ml; CFU % of AODC ([5]; 15 min treatment): 0.14%; CFU % of Control ([5]; 15 min treatment): 0.09%; CFU/ml ([5]; 15 min treatment): 1.80 × 10^3 CFU/ml; CFU % of AODC ([5]; 20 min treatment): 0.04%; CFU % of Control ([5]; 20 min treatment): 0.009%; CFU/ml ([5]; 20 min treatment): 1.82 × 10^2 CFU/ml; kill of the spore population ([5]; 30 min): 99.995%; viable spores after treatment ([5]; 30 min): 10 spores/mL; CFU % of AODC ([5]; 30 min treatment): 0.04%; CFU % of Control ([5]; 30 min treatment): 0.00005%; CFU/ml ([5]; 30 min treatment): 10 CFU/ml; CT (concentration x time) value ([5]; 0.3 ppm×5 min): 1.5; CT (concentration x time) value ([5]; 0.3 ppm×15 min): 4.5; CT (concentration x time) value ([5]; 0.3 ppm×30 min): 9; change in spore concentrations (MALS) [6]: decreases in spore concentrations with increasing exposure to ozone
